Test results from ChEMBL document CHEMBL3739366, “Discovery of HTL6641, a dual orexin receptor antagonist with differentiated pharmacodynamic properties” (Medchemcomm, 2015).

Tests used:
[1] = target: T1, Orexin/Hypocretin receptor type 1 (Homo sapiens, UniProt O43613); assay: Displacement of [3H]-4-(2,6-Difluoro-4-methoxybenzyl)-2-(5,6-dimethoxypyridin-3-yl)-2H-1,2,4-benzothiadiazin-3(4H)-one 1,1-dioxide from orexin receptor-1 (unknown origin) after 90 mins
T1 sequence (O43613 whole entry): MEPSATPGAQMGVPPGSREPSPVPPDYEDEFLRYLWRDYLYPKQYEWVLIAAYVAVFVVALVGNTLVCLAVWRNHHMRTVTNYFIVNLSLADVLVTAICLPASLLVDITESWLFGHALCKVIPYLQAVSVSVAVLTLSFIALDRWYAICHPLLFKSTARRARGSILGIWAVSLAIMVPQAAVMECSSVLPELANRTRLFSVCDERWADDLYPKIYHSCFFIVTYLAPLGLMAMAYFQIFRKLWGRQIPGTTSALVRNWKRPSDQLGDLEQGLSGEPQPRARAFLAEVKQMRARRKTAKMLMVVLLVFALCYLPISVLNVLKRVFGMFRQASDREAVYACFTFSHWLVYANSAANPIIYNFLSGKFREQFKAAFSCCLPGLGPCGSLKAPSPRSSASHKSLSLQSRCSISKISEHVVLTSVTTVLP

[2] = target: Cytochrome P450 2C9 (Homo sapiens, UniProt P11712); assay: Inhibition of CYP2C9 (unknown origin); type: ADME
Chain of Cytochrome P450 2C9 (P11712 whole entry): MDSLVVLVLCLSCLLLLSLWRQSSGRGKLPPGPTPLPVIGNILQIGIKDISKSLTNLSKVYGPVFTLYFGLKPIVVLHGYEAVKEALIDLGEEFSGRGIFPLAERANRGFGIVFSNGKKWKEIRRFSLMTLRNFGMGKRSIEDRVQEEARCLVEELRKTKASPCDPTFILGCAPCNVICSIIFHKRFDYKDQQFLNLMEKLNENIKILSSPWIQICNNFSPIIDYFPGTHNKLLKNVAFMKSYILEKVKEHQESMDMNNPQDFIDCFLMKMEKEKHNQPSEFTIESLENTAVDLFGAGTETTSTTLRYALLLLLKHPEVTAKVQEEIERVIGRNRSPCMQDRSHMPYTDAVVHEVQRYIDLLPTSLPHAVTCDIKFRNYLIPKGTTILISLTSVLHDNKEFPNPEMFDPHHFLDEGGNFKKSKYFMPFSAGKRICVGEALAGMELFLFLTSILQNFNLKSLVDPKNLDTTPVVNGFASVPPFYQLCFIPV

[3] = target: T2, Cytochrome P450 2C8 (Homo sapiens, UniProt P10632); assay: Inhibition of CYP2C8 (unknown origin); type: ADME
T2 sequence (P10632 whole entry): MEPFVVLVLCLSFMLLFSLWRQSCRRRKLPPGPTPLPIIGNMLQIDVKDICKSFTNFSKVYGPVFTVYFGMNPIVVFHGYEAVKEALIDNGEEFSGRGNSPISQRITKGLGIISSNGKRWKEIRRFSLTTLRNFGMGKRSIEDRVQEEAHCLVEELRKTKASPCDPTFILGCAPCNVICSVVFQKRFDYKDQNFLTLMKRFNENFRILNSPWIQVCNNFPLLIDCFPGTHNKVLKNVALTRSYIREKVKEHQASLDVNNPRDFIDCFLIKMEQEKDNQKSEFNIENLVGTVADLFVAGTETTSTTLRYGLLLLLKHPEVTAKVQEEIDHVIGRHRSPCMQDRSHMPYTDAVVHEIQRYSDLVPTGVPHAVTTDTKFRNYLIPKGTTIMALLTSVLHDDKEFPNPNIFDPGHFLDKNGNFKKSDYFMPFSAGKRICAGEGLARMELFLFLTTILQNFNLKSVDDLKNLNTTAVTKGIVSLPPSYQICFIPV

[4] = Plasma protein binding in human; type: ADME, cell-free; conditions: read-out: PPB (converted)
[5] = test system: Canis familiaris; assay: AUC (infinity) in beagle dog at 1 mg/kg, po; type: ADME, organism-based, Canis lupus familiaris; parameters: dose 1 mg/kg, route oral, time infinity; conditions: in vivo
[6] = target: T3, Cytochrome P450 1A2 (Homo sapiens, UniProt P05177); assay: Inhibition of CYP1A2 (unknown origin); type: ADME
T3 sequence (P05177 whole entry): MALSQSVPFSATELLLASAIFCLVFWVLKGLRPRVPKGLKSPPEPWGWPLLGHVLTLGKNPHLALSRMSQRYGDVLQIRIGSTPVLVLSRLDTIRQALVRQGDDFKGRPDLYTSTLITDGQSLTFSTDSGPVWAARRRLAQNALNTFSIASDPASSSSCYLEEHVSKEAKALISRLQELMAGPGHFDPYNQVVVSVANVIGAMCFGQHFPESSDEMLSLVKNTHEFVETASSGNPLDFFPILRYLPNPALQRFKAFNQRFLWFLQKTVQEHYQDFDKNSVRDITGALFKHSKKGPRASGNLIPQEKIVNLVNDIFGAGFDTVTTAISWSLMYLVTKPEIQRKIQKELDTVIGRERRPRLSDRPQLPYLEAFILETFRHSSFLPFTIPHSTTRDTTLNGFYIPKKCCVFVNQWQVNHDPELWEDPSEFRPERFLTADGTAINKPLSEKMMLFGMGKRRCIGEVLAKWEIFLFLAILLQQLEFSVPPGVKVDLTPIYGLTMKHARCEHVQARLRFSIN

[7] = test system: Rattus norvegicus; assay: Effect on latency to first NREM episode CD1 rat assessed as reduction of at 3 and 10 mg/kg, po administered at circadian time 18 hrs; type: ADME, organism-based; conditions: in vivo
[8] = Bidirectional apparent permeability of the compound across human Caco2 cells; type: ADME, cell-based; conditions: Caco-2, read-out: permeability
[9] = Volume of distribution at steady state in Sprague-Dawley rat at 1 mg/kg, iv; type: ADME, organism-based; conditions: in vivo, read-out: Vdss
[10] = Clearance in beagle dog at 1 mg/kg, iv; type: ADME, organism-based, Canis lupus familiaris; conditions: in vivo
[11] = Ratio of drug level in brain to plasma in Sprague-Dawley rat at 1 mg/kg, iv after 0.5 hrs; type: ADME, organism-based; conditions: read-out: BPR
[12] = Tmax in Sprague-Dawley rat at 2 mg/kg, po; type: ADME, organism-based; conditions: in vivo

Ki [1]: 0.02 µM | IC50 [2]: > 10 µM | IC50 [3]: > 10 µM | fraction unbound [4]: 0.007 | AUC [5]: 2440 ng·h/mL | IC50 [6]: > 10 µM | Papp [8]: 52 ×10⁻⁶ cm/s | Vd [9]: 2.1 L/kg | clearance [10]: 13 mL/min/kg | Kp at 0.5 h [11]: 0.49 | Tmax [12]: 30 min
Compound: COc1cc(N2C(=O)N(Cc3c(F)cc(F)cc3F)c3ncccc3S2(=O)=O)cnc1OC
Activity [7]: Non-toxic
